The text below walks through data of patent US11324725B2, “Compositions and methods for the inhibition of pruritus” (The United States of America, as represented by the …, priority 2017, dated 2022).

Test [1] concerns the target T1, hNpr1 (Homo sapiens, UniProt P16066).
T1 sequence (P16066 33-1061): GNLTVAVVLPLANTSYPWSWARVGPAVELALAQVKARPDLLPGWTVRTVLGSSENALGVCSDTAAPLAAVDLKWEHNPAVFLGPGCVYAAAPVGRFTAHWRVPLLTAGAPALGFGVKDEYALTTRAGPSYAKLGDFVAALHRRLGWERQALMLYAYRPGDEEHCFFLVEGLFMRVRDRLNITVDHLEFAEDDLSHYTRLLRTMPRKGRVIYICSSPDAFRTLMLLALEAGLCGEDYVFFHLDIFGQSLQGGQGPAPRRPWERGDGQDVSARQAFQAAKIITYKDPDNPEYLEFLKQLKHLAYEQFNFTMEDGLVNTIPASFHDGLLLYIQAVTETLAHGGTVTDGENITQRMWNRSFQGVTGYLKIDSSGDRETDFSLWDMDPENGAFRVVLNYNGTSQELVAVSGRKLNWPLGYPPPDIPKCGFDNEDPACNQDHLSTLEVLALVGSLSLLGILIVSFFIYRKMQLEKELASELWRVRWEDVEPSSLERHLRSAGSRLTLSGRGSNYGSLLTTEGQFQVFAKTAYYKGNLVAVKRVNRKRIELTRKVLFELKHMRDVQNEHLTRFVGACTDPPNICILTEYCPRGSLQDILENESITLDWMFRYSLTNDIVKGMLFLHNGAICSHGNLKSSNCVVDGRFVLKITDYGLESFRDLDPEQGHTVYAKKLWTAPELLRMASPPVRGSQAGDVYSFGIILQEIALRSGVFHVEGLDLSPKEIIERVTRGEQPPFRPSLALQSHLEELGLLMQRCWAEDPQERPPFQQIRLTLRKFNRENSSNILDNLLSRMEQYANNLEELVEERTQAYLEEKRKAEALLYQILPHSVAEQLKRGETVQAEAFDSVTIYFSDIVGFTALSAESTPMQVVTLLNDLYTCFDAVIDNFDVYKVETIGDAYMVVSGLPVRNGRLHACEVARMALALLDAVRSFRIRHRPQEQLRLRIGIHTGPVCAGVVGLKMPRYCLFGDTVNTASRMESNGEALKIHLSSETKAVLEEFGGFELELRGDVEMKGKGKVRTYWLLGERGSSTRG
Nature of the test: qHTS GloSensor cGMP assay, hNppa-stimulated HEK-hNpr1-cGMP-sensor cells (1536-well). The test is classed as cell-based. As to conditions: for Imax, HEK-hNpr1-cGMP-sensor cells: −100% = 38.3 μM A-71915. From the text:
In order to identify small molecular compounds that inhibit the Npr1 receptor a high-throughput assay to probe inhibition of the receptor guanylate cyclase Npr1 was developed. The assay was designed taking advantage of Promega's GloSensor™ technology (Promega, Madison, Wis.). This technology involves the expression of a cyclic guanosine monophosphate (cGMP) biosensor, comprised of a firefly luciferase variant that was coupled to the cGMP binding domain of human phosphodiesterase 5A, and loading of cells with a cell-permeable luciferase substrate to monitor cGMP production by Npr1 in real time in live cells. Briefly, human embryonic kidney 293 cells stably expressing the human Npr1 and the pGloSensor™-40F cGMP vector (“pGloSensor™-40F”) were generated. Stimulating these cells with the Npr1 agonists human NppA or NppB, luciferase-induced light production could be detected in a dose-dependent manner. HEK293 cells stably expressing human Npr2 and pGS-40F and cells only expressing pGS-40F were also generated to conduct secondary counter screens. In these cells, NppC or sodium nitroprusside were used to stimulate Npr2 or soluble guanylate cyclase which is endogenously expressed in HEK293 cells, respectively. The Npr2-NppC counter screen was employed to search for agents that minimally effected this agonist-receptor interaction. The Npr2-NppC system was used because the side effects of most drugs occur on related receptors. Npr1 and Npr2 are the most related receptors in sequence and function and there are no additional active receptor subtypes in this family of receptors. The procedure is described in detail below.
Measurement of intracellular cGMP production in HEK-hNpr1-cGMP-sensor cells was scaled to 4 μl volumes in 1536-well format and primary screening was performed in an automated manner in 7- to 11-point qHTS. Cells (1.5×10^3) were plated in assay medium in white, solid bottom TC treated 1536-well plates (Greiner Bio-One) with a Multidrop™ Combi Reagent Dispenser (Thermo Fisher Scientific). Cells were incubated at 37° C., 5% CO2 and 95% humidity for 16 hours and 1 μl of GloSensor™ reagent at a final assay concentration of 2% or assay medium as background control was added to respective wells with a BioRAPTR Flying Reagent Dispenser™ (Beckman Coulter, Schaumburg, Ill.). Cells were incubated at room temperature for 2 hours, protected from light. Compound (23 nl) was transferred by a pintool (Kalypsys, San Diego, Calif.) in the concentration range of […] to 46.1 μM along with DMSO and a titration of A-71915 from top concentration 38.3 μM to 1.7 nM in columns 1-4 of each plate as vehicle and positive controls, respectively. Cells were incubated with compound for 30 minutes at room temperature, protected from light. Pre-agonist luminescence for each plate was read on a ViewLux™ plate reader (PerkinElmer). Human NppA (1 μl) at a final assay concentration of 0.1 nM, or C02-independent media were added to respective wells with a BioRAPTR Flying Reagent Dispenser™ (Beckman Coulter). Plates were incubated for 20 minutes at room temperature, protected from light, and luminescence was read on a ViewLux™ plate reader.
Pre-agonist and post-agonist data were normalized by plate to corresponding intra-plate controls as described in Inglese et al., PNAS USA, 103: 11473-11478 (2006) (which is incorporated herein by reference, in its entirety). Assay statistics including S:N and Z′ were calculated using the same respective controls. Pre-agonist data were normalized to the average signal of DMSO-treated wells with 2% GoSensor™ reagent as 0% and the average signal of DMSO-treated wells with assay medium as −100% activity. Post-agonist data were normalized to the average signal of DMSO-treated wells with 2% GoSensor™ reagent and 0.1 nM hNppA as 0% and the average signal of wells treated with 38.3 μM A-71915 with 2% GloSensor™ reagent and 0.1 nM hNppA as −100% activity. […]
A general note: qHTS replaces the single test concentration by a dilution series.

Test [2] deals with T1, hNpr1. In words: Cell-free hNpr1 membrane cyclase assay (cGMP ELISA). As to conditions: for Ki: calculated with Cheng-Prusoff equation from Table 4, read-out: Ki hNpr1 cyclase assay [μM] (mean ± SEM). It counts as biochemical.
[3] abbreviates: Table 1, cell-based GloSensor assay of hNpr1 inhibition, read-out: IC50 GloSensor™ assay.
The mark [4] stands for this setting: qHTS follow-up, hNppa-stimulated, four-parameter fit, read-out: IC50, HEK-hNpr1-cGMP-sensor cells.
[5] abbreviates: qHTS follow-up, hNppa-stimulated.
[6] abbreviates: Table 1, biochemical assay, read-out: IC50 biochem assay.
Where [7] appears, read: membranes of HEK-hNpr1-cGMP-sensor cells, hNppa-stimulated.
Where [8] appears, read: membranes of HEK-hNpr1-cGMP-sensor cells, hNppa-stimulated, read-out: IC50 [μM] (mean ± SEM), membrane cyclase assay.

Entries after “also recorded” stand apart in the source; their conditions may differ.

Regarding `Cc1cc(CNC(=O)c2ccc3c(c2)n(CC2CC2)c(=O)n3C2CCCCC2)on1` [JS-11, 1-cyclohexyl-3-(cyclopropylmethyl)-N-((3-methylisoxazol-5-yl)methyl)-2-oxo-2,3-dihydro-1H-benzo[d]imidazole-5-carboxamide], the “Inhibition of hNppa-induced hNpr1 activity (in words)” value in test [1] (HEK-hNpr1-cGMP-sensor cells) was “inhibit hNpr1 activity; also recorded: inhibits hNppa-induced hNpr1 activity; also recorded: antagonizes natriuretic peptide-induced activation”. In addition, the IC50 (in general, the point on the concentration scale where inhibition reaches its midpoint) in test [1] (setting [3]) stood at 5620 nM; in test [1] (setting [4]), 21000 ± 1300 nM; in test [2] (setting [6]), 1.14 µM; in test [2] (setting [8]), 1.4 ± 0.1 µM. In addition, the “Imax, HEK-hNpr1-cGMP-sensor cells” value in test [1] (setting [5]) is −140 ± 13%. Moreover, the inhibition constant Ki (in general, a measure of affinity in units of concentration, obtained from inhibition or displacement) in test [2] was 0.21 ± 0.008 µM. In test [2] (setting [7]), the “Imax [%] (mean ± SEM), membrane cyclase assay” value (“Imax [%] (mean ± SEM)” for short) is −99.7 ± 0.2%.
Take `O=C(NCc1cccnc1)c1cnc2[nH]nc(-c3ccccc3)c2n1` [JS-7, 3-phenyl-N-(pyridin-3-ylmethyl)-1H-pyrazolo[3,4-b]pyrazine-5-carboxamide]: the IC50 in test [1] (setting [3]) came to 22400 nM; in test [1] (setting [4]) it was 85000 ± 22000 nM; in test [2] (setting [6]), 0.122 µM; in test [2] (setting [8]) it was 0.1 ± 0.3 µM. In test [1] (setting [5]), the “Imax, HEK-hNpr1-cGMP-sensor cells” value is −216 ± 97%. Further, in test [2], the Ki is 0.02 ± 0.044 µM. The “Imax [%] (mean ± SEM)” value in test [2] (setting [7]) was −98.4 ± 1.5%.
Consider `Cc1nn2c(c1-c1ccccc1Oc1ccccc1)N(C(=O)Cc1ccc3c(c1)OCO3)CCC2` [JS-10, 2-(benzo[d][1,3]dioxol-5-yl)-1-(2-methyl-3-(2-phenoxyphenyl)-6,7-dihydropyrazolo[1,5-a]pyrimidin-4(5H)-yl)ethan-1-one], for which the IC50 in test [1] (setting [3]) amounted to 7940 nM; in test [1] (setting [4]) it was 17000 ± 1300 nM; in test [2] (setting [6]) it was 0.744 µM; in test [2] (setting [8]), 0.7 ± 0.6 µM. Further, the “Imax, HEK-hNpr1-cGMP-sensor cells” value in test [1] (setting [5]) is on record as −122 ± 12%. For the same molecule, the inhibitory constant (Ki) in test [2] was 0.11 ± 0.09 µM. Also, the “Imax [%] (mean ± SEM)” value in test [2] (setting [7]) is given as −95.2 ± 3.3%.
On to `COc1ccccc1-c1n[nH]c2ncc(C(=O)NCc3cccnc3)nc12` [JS-6, 3-(2-methoxyphenyl)-N-(pyridin-3-ylmethyl)-1H-pyrazolo[3,4-b]pyrazine-5-carboxamide], for which the IC50 amounted to 11200 nM in test [1] (setting [3]), 24000 ± 1200 nM in test [1] (setting [4]), 0.766 µM in test [2] (setting [6]) and 0.8 ± 1.9 µM in test [2] (setting [8]). Besides, the “Imax, HEK-hNpr1-cGMP-sensor cells” value in test [1] (setting [5]) is −15 ± 3%. In addition, in test [2], the Ki was 0.11 ± 0.275 µM. For the same molecule, the “Imax [%] (mean ± SEM)” value in test [2] (setting [7]) is −99.4 ± 0.5%.
